Experimental data published in article PMC5641083, “Blockage of FOXP3 transcription factor dimerization and FOXP3/AML1 interaction inhibits T regulatory cell activity: sequence optimization of a peptide inhibitor” (Oncotarget, 2017).

Assays:
[1] = system: FOXP3-6His (native FOXP3, 1-421); test: Surface plasmon resonance, peptide binding to FOXP3-coated chip; conditions: FOXP3 coated on chip; mutants compared with original P60
Procedure: Using truncated versions of FOXP3, we attempted to identify the FOXP3 domain interacting with peptide P60, described previously by or group as a FOXP3 inhibitory peptide. Thus, besides native FOXP3 we prepared the deletion mutants FOXP3 (1-331) (lacking the C-terminus of FOXP3), FOXP3 (177-421) (lacking the N-terminus) and FOXP3 (1-177) (encompassing only the N-terminus of FOXP3) (Figure 1A). They were coated on a chip for SPR experiments.
Screening of peptide binding to FOXP3 was performed by surface plasmon resonance (SPR) using ProteOn XPR36 (Bio-Rad, Hercules CA, USA) optical biosensor. Recombinant protein FOXP3-6His and the indicated truncated versions of FOXP3 were produced and purified from E-coli and immobilized covalently onto a GLM sensor chip (Bio-Rad) using sulfo-NHS and EDC (Bio-Rad) coupling reagents. After protein immobilization, chip surface was treated with ethanolamine to deactivate the excess of reactive esters. Individual peptide solutions (1–20 μM) were injected by triplicate in running buffer (Phosphate buffered saline, 0.005% (v/v) Tween 20, pH 7.4) at a flow of 30 μl/min. The interspot signal (obtained in the chip surface not immobilized with protein) was used as reference.

[2] = system: CT26 tumor cells; test: AH1 vaccination and CT26 tumor challenge; format: in vivo, BALB/c mice; conditions: AH1 in IFA, peptide 10 nanomol/mice/day i.p. 10 days, challenge 10^6 CT26 cells s.c. day 10
Procedure: In those experiments, BALB/c mice were immunized with peptide AH1 emulsified in IFA and treated daily with saline or with 50 nanomol/mice/day of peptide P60 i.p. from day 0 to day 9 after immunization. To study the efficacy of CM-1315, our optimized version of P60, mice immunized with AH1 were treated with 10 nanomol/mice/day of P60 or CM-1315 and challenged at day 10 by s.c. injection with 10^6 CT26 tumor cells (instead of 5 × 10^5 cells used in our previous study). As control, groups of mice were injected with AH1 alone or left untreated.
For tumor rejection experiments, Hepa-129 cells (10^6 cells/mouse), were injected subcutaneously (sc) in C3H/HeN mice (n = 6). Ten days later, when the tumor reached 5 mm in diameter, mice were randomly divided into different experimental groups. A group of mice were treated i.p. with anti-PD1 antibodies (50 μg/mouse). Antibody administration was repeated one week after this first administration. A group of mice treated with anti-PD1 also received the cyclic peptide CM-1215 from days 10 to 20 (50 μg/mice/day). Tumor size, presented as the average of two perpendicular diameters (millimetres), was measured at regular intervals. Mice were sacrificed when the mean tumor diameter was greater than 20 mm. […] Tumor size was monitored twice a week with a calliper and it was expressed according to the formula V = (length × width^2)/2. […]

FOXP3 binding capacity by SPR (in words) [1]: bound with high affinity
Substance: H-RDFQSFRKMWPFFAM-OH [P60]
Protection against CT26 tumor challenge (in words) [2]: only animals treated with CM-1315 remained protected
